Here are results for five molecules from patent US6627732B1, “Glutathione derivatives and their dosage forms” (Teijin Limited, priority 1998, dated 2003).

The subject of one series is swine liver esterase. Description: Decomposition of glutathione derivatives by swine liver esterase (physiological stability). The format is in vitro ADME. The settings on record: BSA/D-PBS pH 7.4, 196-244 μg/ml. On the procedure: (§1) (1) Bovine serum albumin (hereinafter referred to as BSA), Dulbecco's phosphate buffered saline (hereinafter referred to as D-PBS), swine liver esterase, and rabbit liver esterase were purchased from Sigma, 6-week old male SD rats were purchased from Nippon SLC, and 12-week old or older male Japanese white rabbits were purchased from Ichikawaya. On the day of the incubation experiment described below, blood was drawn from the animals in the presence of heparin, and plasma was separated therefrom for use. Human plasma was obtained from normal healthy males after obtaining their consent.
(§2) (2) The glutathione derivatives described in the Examples and Comparative Examples of the present invention were incubated for a fixed time in an enzyme solution having the following composition. Acetonitrile was added to the reaction mixture to inactivate the enzyme thereby to stop the reaction. The concentration of the glutathione derivatives in the deproteinized supernatant was measured by HPLC. For each time point of the esterase enzyme experiment, the mean values from two measurement or more were determined, and for the rats and rabbits the mean values of plasma samples from three individuals were determined. For some of the experiment data, changes with time of percentages relative to initial concentration of the glutathione derivative are shown in FIGS. 2 to 4.
(§3) Swine liver esterase and rabbit liver esterase experiment
(§4) 30 mg-BSA/ml-D-PBS (pH 7.4): 36 to 45 parts
(§5) Swine or rabbit liver esterase/D-PBS: 4-5 parts
(§6) 10 mg-glutathione derivative/ml-ethanol: one part (the final concentration in the reaction mixture is 196-244 μg/ml)

A further series deals with rabbit liver esterase. Description: Decomposition of glutathione derivatives by rabbit liver esterase (physiological stability). The format is in vitro ADME. The settings on record: BSA/D-PBS pH 7.4, 196-244 μg/ml. On the procedure: as §1, §2, §3, §4, §5, §6
Series [1] can be described thus: Stability in rabbit plasma. On the procedure: as §1, §2
Rat, rabbit, and human plasma
Heparinized plasma: 30 to 40 parts
10 mg-glutathione derivative/ml-ethanol: one part (the final concentration in the reaction mixture is 250-323 μg/ml)

Series [2] can be described thus: Pharmacokinetics after intravenous administration to rabbits, 2-compartment model (Example 25). The format is in vivo, rabbit. The settings on record: iv auricular vein 2 ml/kg, fat emulsion (Comparative Ex. 1: HPCD/glucose solution). An excerpt:
For the glutathione derivative of the present invention having a long-chain ester having 12 carbons or more and the glutathione derivatives of the conventional technology of Comparative Examples 1 and 2, kinetics in the blood were compared in rabbits that are a species having allow esterase activity in the blood.
(1) Male Japanese white rabbits, 12-week old or older, were purchased from Ichikawaya, and those rabbits that became 15-week old or older and whose body weight reached about 3 kg were used for the experiment. During the period up to the experiment, the animals were allowed free access to the animal feed and drinking water and were kept at a temperature of 24±2° C. and a humidity of 55±5%.
(2) The glutathione derivative having a long-chain ester of 12 carbons or more and the glutathione derivative of Comparative Example 2 were prepared at 20-200 mg/ml in a mixture of ethanol or ethanol:benzyl alcohol, which was mixed with the fat emulsion just prior to use, and was filtered with a 1.2 μm filter to obtain a liquid for intravenous administration. On the other hand, the glutathione derivative of Comparative Example 1 was dissolved in an aqueous solution of 6%-hydroxypropyl-β-cyclodextrin/5%-glucose at 15 mg/ml to obtain an administration liquid.
(3) The administration liquid of the glutathione derivative obtained in (2) at a dose of 2 ml/kg was rapidly infused into the left auricular vein of the rabbits under no anesthesia and under restraint at a rate of 1 ml/min. Each glutathione derivative was given to three or more rabbits. At 5, 10, 15, 30, 60, 120, and 240 minutes after the completion of the administration, 1 ml of the blood was drawn from the right auricular vein in the presence of heparin, which was immediately cooled on ice. Plasma was obtained by centrifuging the blood, 1-2 volume parts of acetonitrile was added to deproteinize the supernatant, which was filtered by a 0.5 μm filter. The supernatant of the filtrate was quantitated by HPLC.

In series [3] the test system is rat models of suppressed hematopoietic function by 5-FU administration. Description: Ratio of segmented neutrophils in rat models of suppressed hematopoietic function by 5-FU (Example 27). The format is in vivo. The settings on record: 5-FU rats. On the procedure: (1) The animals used are the same as in Example 26. The keeping condition was a temperature of 23±2° C. and a humidity of 55±15%.
(2) The creation of the 5-FU administration model, the administration of test substances, and the blood collection schedule were carried out in a similar manner to Example 26. Hematological tests were carried out using the Toa multi-channel automatic cell counter K-4500 or Toa Sysmex CC-180A automatic cell counter, differential counts of white blood cells were carried out by May-Giemsa stain followed by microscopic examination, reticulocytes were counted by the Brecher method.
(3) Using the same schedule as in Example 26, the negative control group that only received the fat emulsion after 5-FU administration, the group that received the glutathione derivative of Example 4 at 30 mg/kg-body weight/day as a test substance together with the fat emulsion, the group that similarly received the glutathione derivative of Example 1 at 10 or 30 mg/kg-body weight/day, and the group that received the glutathione derivative of Example 7 at 30 or 60 mg/kg-body weight/day were studied.

The test system is the same in series [4]. Nature of the series: Recovery of neutrophil counts in rat models of suppressed hematopoietic function by 5-FU (Example 26). The format is in vivo. The settings on record: 5-FU rats; 10 μg/kg-body weight/day, days 2-10; day 4 and from day 8. An excerpt: Regarding the effect of promoting the recovery of neutrophil counts in rat models of suppressed hematopoietic function by 5-fuluorouracil administration, statistical significance was compared to the control group to compare the pharmaceutical composition containing Example 4 of the present invention as an active ingredient with the pharmaceutical composition of the conventional technology of Comparative Example 1 and granulocyte colony-stimulating factor (G-CSF).
(1) Animals used and the keeping condition: Male SD rats, 6-week old, purchased from Nippon SLC were used. The animal feed (manufactured by Oriental Yeast Co., Ltd.) and drinking water (well water treated with 0.4±0.2 ppm hypochlorous acid) were given ad libitum during the period of the experiment. The animals were housed in a hanging-type rat cage (manufactured by Nippon Cage K.K.) and kept at a temperature of 24±2° C. and a humidity of 55±5%.
(2) Creation of rat models of suppressed hematopoietic function by 5-FU administration; Creation of rat models of suppressed hematopoietic function by 5-FU (Kyowa Hakko Kogyo Co. Ltd.) administration was carried out based on the method of Akamatsu et al. (Yakuri to Chiryo(Pharmacology and Therapy), 18. (Suppl. 9), 317-356 (1990)). Thus, on the first day of the experiment, 5-FU at 50 mg/kg-body weight (dosage volume is 1 ml/kg-body weight) or the same amount of physiological saline (manufactured by Fuso Pharmaceuticals Industries, Ltd.) was intraperitoneally administered to the rats described in (1). On days 4, and 7-12, blood was drawn from the jugular vein and the EDTA-2K-treated blood was obtained. The blood was used to determine the neutrophil count using a general chemistry test instrument (Technicon H-1E, manufactured by Bayer-Sankyo K.K.) and the ratio of reticulocytes using a reticulocyte determination instrument (EPICS, XL-MCL, manufactured by Coulter K.K.). Blood was also drawn on day 1 of the experiment, and the values determined for the blood were used as the pre-administration values.
In the physiological saline administration group, no changes in neutrophil count were observed throughout the experiment period, whereas in the 5-FU administration group there was a reduction in neutrophil count with the lowest value observed on day 8 of the experiment, and the neutrophil count was recovered to the value before 5-FU administration or higher on day 10 of the experiment or after. The above results confirmed that rat models of suppressed hematopoietic function can be created by a single intraperitoneal administration of 5-FU at 50 mg/kg-body weight.
(3) Evaluation of Example 4 and Comparative Example 1 in the above model; To the model described in (2), the glutathione derivative of Example 4 combined with the fat emulsion at 10 to 30 mg/kg-body weight/day or the glutathione derivative of Comparative Example 1 dissolved in a physiological saline containing 2.5% hydroxypropyl-β-cyclodextrin at 50 mg/kg-body weight/day was repeatedly administered into the tail vein for 9 days from day 2 to 10 of the experiment. The recombinant human G-CSF formulation (hereinafter referred to as G-CSF, manufactured by Chugai Pharmaceutical Co., Ltd.) as the positive control at 10 μg/kg-body weight/day and the empty fat emulsion as the negative control were administered in a similar manner. […]

Where [5] appears, read: heparinized plasma, 250-323 μg/ml.
[6] abbreviates: 30 mg/kg-body weight/day with fat emulsion.

With `CCCCCCCCCCOC(=O)[C@H](NC(=O)[C@H](CSCc1ccccc1)NC(=O)CC[C@H](N)C(=O)OCC)c1ccccc1.Cl` [Comparative Example 4, Glu(Cys(Bzl)-D-Phg-O(Decyl))-OEt Hydrochloride, reference compound], in the series on swine liver esterase, the “Decomposition rate constant by swine liver esterase” value is listed as 88.5 10^−4/unit/min. Besides, the “Decomposition rate constant by rabbit liver esterase” value with rabbit liver esterase is on record as 54.2 10^−4/unit/min. Besides, in series [1] (rabbit, plasma), the “Half life in rabbit plasma” value worked out at 181 min.

With `CCCCCCCCCCCCCCCCCCOC(=O)[C@@H](N)CCC(=O)N[C@@H](CSCc1ccccc1)C(=O)N[C@@H](C(=O)OCC)c1ccccc1.Cl` [Example 1, Glu(Cys(Bzl)-D-Phg-OEt)-O(Octadecyl)hydrochloride], in the series on swine liver esterase, the “Decomposition rate constant by swine liver esterase” value was 0.0901 10^−4/unit/min. Also, the “Decomposition rate constant by rabbit liver esterase” value in the series on rabbit liver esterase is listed as 0.300 10^−4/unit/min. In series [1] (setting [5]), the “Half life in rabbit plasma” value turned out to be 24514 min. Besides, in series [2], the “Clearance per body weight” value came to 0.03 L/kg/h and the “Distribution volume per body weight of the central compartment” value (from here on “Distribution volume per body weight”) is reported as 0.06 L/kg. In series [3] (10 mg/kg-body weight/day with fat emulsion), the “Recovery of segmented neutrophil counts relative to the negative control” value is “tendency of promoting the recovery of segmented neutrophil counts”. The “Recovery of segmented neutrophil counts relative to the negative control” value in series [3] (setting [6]) was “tendency of promoting the recovery of segmented neutrophil counts”.

Take `CCCCCCCCCCCCCCOC(=O)[C@@H](N)CCC(=O)N[C@@H](CSCc1ccccc1)C(=O)N[C@@H](C(=O)OCC)c1ccccc1.Cl` [Example 6, Glu(Cys(Bzl)-D-Phg-OEt)-O(Tetradecyl)hydrochloride]: in the series with swine liver esterase, the “Decomposition rate constant by swine liver esterase” value was 2.61 10^−4/unit/min. In addition, the “Decomposition rate constant by rabbit liver esterase” value with rabbit liver esterase was 5.11 10^−4/unit/min. Also, in series [1] (setting [5]), the “Half life in rabbit plasma” value is 1084 min. Further, in series [2], the “Clearance per body weight” value is 0.29 L/kg/h and the “Distribution volume per body weight” value amounted to 0.08 L/kg.

`CCCCCCCCCCCCOC(=O)[C@@H](N)CCC(=O)N[C@@H](CSCc1ccccc1)C(=O)N[C@@H](C(=O)OCC)c1ccccc1.Cl` [Example 7, Glu(Cys(Bzl)-D-Phg-OEt)-O(Dodecyl)hydrochloride]: the “Decomposition rate constant by swine liver esterase” value in the series on swine liver esterase is 15.2 10^−4/unit/min. Further, the “Decomposition rate constant by rabbit liver esterase” value in the series on rabbit liver esterase is recorded as 21.1 10^−4/unit/min. Besides, the “Half life in rabbit plasma” value in series [1] (setting [5]) is reported as 323 min. Moreover, in series [2], the “Clearance per body weight” value came out at 2.85 L/kg/h and the “Distribution volume per body weight” value worked out at 0.47 L/kg. Besides, in series [3] (setting [6]), the “Recovery of segmented neutrophil counts relative to the negative control” value was “no changes relative to the negative control”. In series [3] (60 mg/kg-body weight/day with fat emulsion, days 11 and 12), the “Recovery of neutrophil counts relative to the negative control” value was “tendency of promoting the recovery of neutrophil counts”.

B1: G-CSF: recombinant human G-CSF formulation, manufactured by Chugai Pharmaceutical Co., Ltd., positive control (protein, UniProt P09919 31-207, looked up)
Granulocyte …: TPLGPASSLPQSFLLKCLEQVRKIQGDGAALQEKLVSECATYKLCHPEELVLLGHSLGIPWAPLSSCPSQALQLAGCLSQLHSGLFLYQGLLQALEGISPELGPTLDTLQLDVADFATTIWQQMEELGMAPALQPTQGAMPAFASAFQRRAGGVLVASHLQSFLEVSYRVLRHLAQP
Regarding B1, the “Neutrophil counts relative to the negative control group” value in series [4] is recorded as “statistically significant increase in neutrophil counts”.
